# Test results from patent US3948899A, “α-Cyanobenzylpiperazines and a process for producing the same” (Fuji Chemical Industry Co., Ltd., priority 1973, dated 1976).
# Assays:
# [1] = tested on: mongrel adult dogs; test: Effects on coronary sinus oxygen tension (thoractomized anesthetized dogs, i.v.); assay type: in vivo, dog
# Experimental: (§1) All experiments were conducted on male and female thoractomized mongrel adult dogs weighing about 10 Kg under anesthesia with pentobarbital sodium.
# (§2) Arterial blood pressure was measured by pressure transducer (Nippon Koden MPU-0.5) connected with the cannula inserted from exposed carotid artery into aorta. Aortic blood flow was determined by means of electromagnetic flow meter (Nippon Koden MF-5) mounted at an origin of aorta. Coronary sinus out flow and coronary sinus oxygen tension were assessed by means of electromagnetic flow meter (Nippon Koden MF-5) and Po2 Macro electrode (Beckmann Moder 160-C), respectively, using Morawitz cannulization technique. Heart rate was measured by cardiotachometer (Nippon Koden RT-2) synchronized with systolic blood pressure of aorta.
# [2] = tested on: mongrel adult dogs; test: Effects on heart rate (thoractomized anesthetized dogs, i.v.); assay type: in vivo, dog
# Experimental: as §1, §2
# [3] = Acute toxicity (LD50; per os, mice); assay type: in vivo; conditions: mouse, in vivo, po, dd-0train male mice
# Experimental: (§3) 7. Acute Toxicity (See Table 7) Acute toxicity (LD50; per os, mice) was measured in dd-0train male mice.
# [4] = tested on: dd-0train male mice; test: Acute toxicity (LD50; per os, mice); assay type: in vivo
# Experimental: as §3
# [5] = tested on: mongrel adult dogs; test: Effects on the work done by the left ventricle (thoractomized anesthetized dogs, i.v.); assay type: in vivo, dog
# Experimental: as §1, §2
# The work done by the left ventricle is calculated according to the following equation: […]
# [6] = tested on: mongrel adult dogs; test: Effects on aortic blood flow (thoractomized anesthetized dogs, i.v.); assay type: in vivo, dog
# Experimental: as §1, §2
# [7] = tested on: mongrel adult dogs; test: Effects on arterial mean blood pressure (thoractomized anesthetized dogs, i.v.); assay type: in vivo, dog
# Experimental: as §1, §2
# [8] = tested on: mongrel adult dogs; test: Effects on coronary sinus out flow (thoractomized anesthetized dogs, i.v.); assay type: in vivo, dog
# Experimental: as §1, §2
smiles,measurement,setting,value
"CCOC(=O)N1CCN(C(C#N)c2ccc(OC)c(OC)c2)CC1 (stereo not drawn) [Compound B-01, N-(α-cyano-3,4-dimethoxybenzyl)-N'-ethoxycarbonyl piperazine]","Changes(%) of basal values, coronary sinus oxygen tension","[1]; i.v. 2.0 mg/Kg, 15 min",+12.0%
same,"Changes(%) of basal values, coronary sinus oxygen tension","[1]; i.v. 2.0 mg/Kg, 25 min",+12.5%
same,"Changes(%) of basal values, coronary sinus oxygen tension","[1]; i.v. 6.0 mg/Kg, 10 min",+3.0%
same,"Changes(%) of basal values, coronary sinus oxygen tension","[1]; i.v. 6.0 mg/Kg, 15 min",+25.5%
same,"Changes(%) of basal values, coronary sinus oxygen tension","[1]; i.v. 6.0 mg/Kg, 25 min",+16.2%
same,"Changes(%) of basal values, coronary sinus oxygen tension","[1]; i.v. 20.0 mg/Kg, 5 min",+89.0%
same,"Changes(%) of basal values, coronary sinus oxygen tension","[1]; i.v. 20.0 mg/Kg, 15 min",+90.1%
same,"Changes(%) of basal values, coronary sinus oxygen tension","[1]; i.v. 20.0 mg/Kg, 25 min",+63.0%
same,Duration of effect on coronary sinus oxygen tension (in words),"[1]; i.v., dogs",proportioned to an increase in coronary sinus out flow and of longer duration
same,Effect on coronary sinus oxygen tension (in words),"[1]; i.v., dogs",significant increase in coronary sinus oxygen tension
same,"Changes(%) of basal values, heart rate","[2]; i.v. 2.0 mg/Kg, 15 min",0%
same,"Changes(%) of basal values, heart rate","[2]; i.v. 2.0 mg/Kg, 25 min",0%
same,"Changes(%) of basal values, heart rate","[2]; i.v. 6.0 mg/Kg, 15 min",+0.6%
same,"Changes(%) of basal values, heart rate","[2]; i.v. 6.0 mg/Kg, 25 min",+1.0%
same,"Changes(%) of basal values, heart rate","[2]; i.v. 20.0 mg/Kg, 15 min",-2.6%
same,"Changes(%) of basal values, heart rate","[2]; i.v. 20.0 mg/Kg, 25 min",-6.3%
same,Effect on heart rate (in words),"[2]; i.v., dogs",sight negative chromotropic effect
same,LD50,[3],2200 mg/kg
same,LD50,[4]; dd-0train male mice,2200 mg/kg
same,Acute toxicity relative to Vastarel F (in words),[4]; mice,significantly less toxicity than that of Vastarel F
same,"Changes(%) of basal values, work of left ventricle","[5]; i.v. 2.0 mg/Kg, 1 min",+2.7%
same,"Changes(%) of basal values, work of left ventricle","[5]; i.v. 2.0 mg/Kg, 5 min",+0.8%
same,"Changes(%) of basal values, work of left ventricle","[5]; i.v. 2.0 mg/Kg, 10 min",-2.0%
same,"Changes(%) of basal values, work of left ventricle","[5]; i.v. 2.0 mg/Kg, 15 min",-2.6%
same,"Changes(%) of basal values, work of left ventricle","[5]; i.v. 2.0 mg/Kg, 20 min",-2.9%
same,"Changes(%) of basal values, work of left ventricle","[5]; i.v. 2.0 mg/Kg, 25 min",-3.1%
same,"Changes(%) of basal values, work of left ventricle","[5]; i.v. 2.0 mg/Kg, 30 min",-3.6%
same,"Changes(%) of basal values, work of left ventricle","[5]; i.v. 2.0 mg/Kg, imm.",-3.6%
same,"Changes(%) of basal values, work of left ventricle","[5]; i.v. 6.0 mg/Kg, 1 min",+2.3%
same,"Changes(%) of basal values, work of left ventricle","[5]; i.v. 6.0 mg/Kg, 5 min",-1.7%
same,"Changes(%) of basal values, work of left ventricle","[5]; i.v. 6.0 mg/Kg, 10 min",-5.9%
same,"Changes(%) of basal values, work of left ventricle","[5]; i.v. 6.0 mg/Kg, 15 min",-8.3%
same,"Changes(%) of basal values, work of left ventricle","[5]; i.v. 6.0 mg/Kg, 20 min",-5.3%
same,"Changes(%) of basal values, work of left ventricle","[5]; i.v. 6.0 mg/Kg, 25 min",-2.0%
same,"Changes(%) of basal values, work of left ventricle","[5]; i.v. 6.0 mg/Kg, 30 min",-2.8%
same,"Changes(%) of basal values, work of left ventricle","[5]; i.v. 6.0 mg/Kg, imm.",-0.1%
same,"Changes(%) of basal values, work of left ventricle","[5]; i.v. 20.0 mg/Kg, 1 min",-10.9%
same,"Changes(%) of basal values, work of left ventricle","[5]; i.v. 20.0 mg/Kg, 5 min",-8.4%
same,"Changes(%) of basal values, work of left ventricle","[5]; i.v. 20.0 mg/Kg, 10 min",-9.2%
same,"Changes(%) of basal values, work of left ventricle","[5]; i.v. 20.0 mg/Kg, 15 min",-14.8%
same,"Changes(%) of basal values, work of left ventricle","[5]; i.v. 20.0 mg/Kg, 20 min",-14.3%
same,"Changes(%) of basal values, work of left ventricle","[5]; i.v. 20.0 mg/Kg, 25 min",-16.1%
same,"Changes(%) of basal values, work of left ventricle","[5]; i.v. 20.0 mg/Kg, 30 min",-14.1%
same,"Changes(%) of basal values, work of left ventricle","[5]; i.v. 20.0 mg/Kg, imm.",-8.5%
same,Duration of effect on the work of the left ventricle (in words),"[5]; i.v., dogs",longer duration
same,Effect on the work of the left ventricle (in words),"[5]; i.v., dogs",decrease in the work of the left ventricle
same,"Changes(%) of basal values, aortic blood flow","[6]; i.v. 2.0 mg/Kg, 15 min",+2.0%
same,"Changes(%) of basal values, aortic blood flow","[6]; i.v. 2.0 mg/Kg, 25 min",+1.0%
same,"Changes(%) of basal values, aortic blood flow","[6]; i.v. 6.0 mg/Kg, 15 min",+0.1%
same,"Changes(%) of basal values, aortic blood flow","[6]; i.v. 6.0 mg/Kg, 25 min",+1.0%
same,"Changes(%) of basal values, aortic blood flow","[6]; i.v. 20.0 mg/Kg, 15 min",+3.6%
same,"Changes(%) of basal values, aortic blood flow","[6]; i.v. 20.0 mg/Kg, 25 min",+1.6%
same,Increase of aortic blood flow,"[6]; i.v., dogs",2-8%
same,Later effect on aortic blood flow / its duration (in words),"[6]; i.v., dogs",longer duration
same,Effect on aortic blood flow immediately after administration (in words),"[6]; i.v., dogs, immediately",no decrease in blood flow immediately after medication
same,"Changes(%) of basal values, arterial mean blood pressure","[7]; i.v. 2.0 mg/Kg, 15 min",-4.5%
same,"Changes(%) of basal values, arterial mean blood pressure","[7]; i.v. 2.0 mg/Kg, 25 min",-4.0%
same,"Changes(%) of basal values, arterial mean blood pressure","[7]; i.v. 6.0 mg/Kg, 15 min",-6.3%
same,"Changes(%) of basal values, arterial mean blood pressure","[7]; i.v. 6.0 mg/Kg, 25 min",-3.0%
same,"Changes(%) of basal values, arterial mean blood pressure","[7]; i.v. 20.0 mg/Kg, 15 min",-17.7%
same,"Changes(%) of basal values, arterial mean blood pressure","[7]; i.v. 20.0 mg/Kg, 25 min",-17.4%
same,Duration of hypotensive effect (in words),"[7]; i.v., dogs",longer duration
same,Effect on arterial mean blood pressure (in words),"[7]; i.v., dogs",hypotensive effects
same,"Changes(%) of basal values, coronery sinus out flow","[8]; i.v. 2.0 mg/Kg, 15 min",+4.4%
same,"Changes(%) of basal values, coronery sinus out flow","[8]; i.v. 2.0 mg/Kg, 25 min",+3.0%
same,"Changes(%) of basal values, coronery sinus out flow","[8]; i.v. 6.0 mg/Kg, 15 min",+10.9%
same,"Changes(%) of basal values, coronery sinus out flow","[8]; i.v. 6.0 mg/Kg, 25 min",+8.0%
same,"Changes(%) of basal values, coronery sinus out flow","[8]; i.v. 20.0 mg/Kg, 15 min",+38.2%
same,"Changes(%) of basal values, coronery sinus out flow","[8]; i.v. 20.0 mg/Kg, 25 min",+20.3%
same,Dose dependence and duration of effect on coronary sinus out flow (in words),"[8]; i.v., dogs",proportioned to doses and of longer duration
same,Effect on coronary sinus out flow (in words),"[8]; i.v., dogs",marked increasing effect on coronary sinus out flow
